Measured values taken from PubChem BioAssay (NCI).
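Each compound was tested at five concentrations against cells in 96-well plates for 48 hours. Abbreviation: GI50, concentration required for 50% inhibition of growth. TGI: total growth inhibition.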

How the values were obtained:
Assay in all cases: inhibition of tumour cell growth, NCI panel, 48 h
[1] = test system: SW-620 colon
[2] = test system: HT29 colon
[3] = test system: SN12C renal
[4] = test system: SF-295 CNS
[5] = test system: NCI-H23 lung
[6] = test system: SF-268 CNS
[7] = test system: HCC-2998 colon
[8] = test system: UACC-257 melanoma
[9] = test system: HCT-15 colon
[10] = test system: CAKI-1 renal

## O=C(CC(=O)N1N=C(n2ccc3ccccc32)CC1c1ccccc1)Nc1cccc(Cl)c1 (centres undefined)
[1]
  TGI: > 100 µM
[2]
  TGI: > 100 µM
[3]
  TGI: > 100 µM
[4]
  TGI: > 100 µM
[5]
  TGI: > 100 µM
[6]
  TGI: > 100 µM
[7]
  TGI: > 100 µM
[8]
  TGI: > 100 µM
[9]
  TGI: > 100 µM

## NC(=O)c1ccccc1NC(=O)C(=O)C(C(=O)c1ccc2ccccc2c1)C1OC(=O)c2ccccc21 (centres undefined)
[1]
  TGI: 27.9 µM
[2]
  TGI: 75.8 µM
[3]
  TGI: 37.1 µM
[10]
  TGI: 33 µM
[6]
  TGI: 37.1 µM
[7]
  TGI: 20.1 µM
[8]
  TGI: 37.4 µM
[9]
  TGI: 41.5 µM

## Cn1cc(-c2csc(-c3c[nH]c4ncccc34)n2)c2cc(Br)cnc21
[1]
  GI50: 4.46 µM
  TGI: > 100 µM
[2]
  GI50: 6.75 µM
  TGI: > 100 µM
[10]
  GI50: 1.56 µM
  TGI: > 100 µM
[4]
  GI50: 3.01 µM
  TGI: 18.8 µM
[5]
  GI50: 2.8 µM
  TGI: > 100 µM
[6]
  GI50: 6.01 µM
  TGI: > 100 µM
[7]
  GI50: > 100 µM
  TGI: > 100 µM
[9]
  GI50: 13.7 µM
  TGI: > 100 µM

## Fc1ccc(-c2nc(-c3nc4ccc(Cl)cc4[nH]3)cc3c2[nH]c2ccccc23)cc1
[1]
  GI50: 4 µM
  TGI: 19.2 µM
[2]
  GI50: 4.31 µM
  TGI: 12.8 µM
[3]
  GI50: 3.04 µM
  TGI: 24.4 µM
[10]
  GI50: 3.22 µM
  TGI: 24 µM
[5]
  GI50: 3.66 µM
  TGI: 21.1 µM
[6]
  GI50: 3.66 µM
  TGI: 17.7 µM
[7]
  GI50: 5.56 µM
  TGI: 20.2 µM
[8]
  GI50: 2.4 µM
  TGI: 6.62 µM
[9]
  GI50: 3.63 µM
  TGI: 15.9 µM

## O=C1C2=C(C(=O)c3c(O)ccc(O)c31)N(c1ccc(N3CCOCC3)nc1)Cc1ccccc1O2
[1]
  GI50: 0.152 µM
  TGI: 0.5 µM
[2]
  GI50: 0.294 µM
  TGI: 0.787 µM
[3]
  GI50: 0.262 µM
  TGI: 0.848 µM
[4]
  GI50: 2.01 µM
  TGI: 4.63 µM
[5]
  GI50: 0.421 µM
  TGI: 1.88 µM
[6]
  GI50: 1.37 µM
  TGI: 4.06 µM
[7]
  GI50: 1.56 µM
  TGI: 2.99 µM
[8]
  GI50: 0.556 µM
  TGI: 1.52 µM
[9]
  GI50: 0.205 µM
  TGI: 0.622 µM

## C/C(=N\NC(=O)CC(=O)Nc1ccc(C)cc1)c1cc2ccccc2oc1=O
[1]
  TGI: > 100 µM
[2]
  TGI: > 100 µM
[3]
  TGI: > 100 µM
[4]
  TGI: > 100 µM
[5]
  TGI: > 100 µM
[8]
  TGI: > 100 µM
[9]
  TGI: > 100 µM

## COc1ccc(/C=C2/C(=O)N(C(=O)c3ccccc3O)N=C2C)cc1OC
[1]
  TGI: > 100 µM
[2]
  TGI: > 100 µM
[3]
  TGI: > 50.7 µM
[10]
  TGI: > 28.1 µM
[4]
  TGI: > 100 µM
[6]
  TGI: > 100 µM
[7]
  TGI: > 100 µM
[8]
  TGI: > 100 µM
[9]
  TGI: > 100 µM

## Cc1cc(C)nc(NS(=O)(=O)c2ccc(Nc3c4ccccc4nc4c(C(=O)NCCN(C)C)ccc(Cl)c34)cc2)n1
[1]
  TGI: 9.04 µM
[2]
  TGI: 4.8 µM
[3]
  TGI: 8.2 µM
[4]
  TGI: 5.91 µM
[5]
  TGI: 11.7 µM
[6]
  TGI: 8.11 µM
[7]
  TGI: 26.7 µM
[9]
  TGI: 10.1 µM

## COC(=O)[C@]12CC[C@@H](C)[C@H](C)[C@@H]1C1=CC[C@@H]3[C@@]4(C)C[C@@H](OC(=O)c5ccco5)[C@H](O)[C@@](C)(CO)[C@@H]4[C@H](O)C[C@@]3(C)[C@]1(C)CC2
[1]
  GI50: 1.79 µM
  TGI: 3.54 µM
[2]
  GI50: 1.8 µM
  TGI: 3.41 µM
[10]
  GI50: 2.99 µM
  TGI: 10.9 µM
[4]
  GI50: 1.84 µM
  TGI: 3.87 µM
[5]
  GI50: 2.42 µM
  TGI: 6.66 µM
[6]
  GI50: 3.26 µM
  TGI: 14.2 µM
[7]
  GI50: 1.95 µM
  TGI: 3.73 µM
[8]
  GI50: 2.87 µM
  TGI: 7.55 µM
[9]
  GI50: 1.84 µM
  TGI: 3.89 µM

## N=C(N)n1ncc(Cl)c(Cl)c1=O
[1]
  TGI: 3.75 µM
[3]
  TGI: 8.44 µM
[10]
  TGI: 3.31 µM
[4]
  TGI: 22.6 µM
[5]
  TGI: 5.06 µM
[6]
  TGI: 9.34 µM
[8]
  TGI: 4.66 µM
[9]
  TGI: 3.99 µM

## O=C(NCCCN1CCN(CCCNC(=O)c2cnc3ccccc3n2)CC1)c1cnc2ccccc2n1
[1]
  TGI: > 100 µM
[2]
  TGI: > 100 µM
[3]
  TGI: > 100 µM
[10]
  TGI: > 100 µM
[4]
  TGI: > 100 µM
[6]
  TGI: > 100 µM
[7]
  TGI: > 100 µM
[8]
  TGI: > 100 µM
[9]
  TGI: > 100 µM

## CN(C)c1cccc(-c2cc(=O)c3ccccc3[nH]2)c1
[1]
  TGI: > 100 µM
[2]
  TGI: > 100 µM
[3]
  TGI: > 100 µM
[4]
  GI50: 28 µM
  TGI: > 100 µM
[5]
  TGI: > 100 µM
[6]
  GI50: 76.6 µM
  TGI: > 100 µM
[7]
  TGI: > 100 µM
[8]
  TGI: > 100 µM
[9]
  TGI: > 100 µM

## COc1cccc(Nc2nc(NNC(=O)Cc3ccccc3)nc(NNC(=O)c3ccncc3)n2)c1
[1]
  TGI: > 100 µM
[2]
  TGI: > 100 µM
[3]
  GI50: > 100 µM
  TGI: > 100 µM
[10]
  GI50: > 100 µM
  TGI: > 100 µM
[4]
  TGI: > 100 µM
[5]
  GI50: > 100 µM
  TGI: > 100 µM
[6]
  GI50: > 100 µM
  TGI: > 100 µM
[8]
  GI50: > 100 µM
  TGI: > 100 µM
[9]
  GI50: > 100 µM
  TGI: > 100 µM

## COc1cc2c(cc1OCCCCNC(=O)c1cc3ccccc3[nH]1)N=CC1CCCN1C2=O (centres undefined)
[1]
  GI50: 9.84 µM
  TGI: 67.6 µM
[2]
  GI50: 32.6 µM
  TGI: > 100 µM
[3]
  GI50: 18.9 µM
  TGI: 44.8 µM
[4]
  GI50: 12.7 µM
  TGI: 41.6 µM
[5]
  GI50: 28.4 µM
  TGI: > 100 µM
[6]
  GI50: 4.4 µM
  TGI: 28 µM
[7]
  GI50: 16.6 µM
  TGI: 45.1 µM
[8]
  GI50: 17.4 µM
  TGI: 43.8 µM
[9]
  GI50: 16.4 µM
  TGI: 58.2 µM

## Cc1ccc(/C=C(\C#N)n2nnc3cc(Cl)c(Cl)cc32)cc1
[2]
  GI50: 2.59 µM
  TGI: 13.6 µM
[3]
  GI50: 3.13 µM
  TGI: 13.1 µM
[10]
  GI50: 1.09 µM
  TGI: 13.8 µM
[5]
  GI50: 3.36 µM
  TGI: > 100 µM
[6]
  GI50: 3.66 µM
  TGI: > 100 µM
[7]
  GI50: 1.9 µM
  TGI: 4.12 µM
[8]
  GI50: 2.95 µM
  TGI: > 100 µM
[9]
  GI50: 1.73 µM
  TGI: 5.99 µM

## CC1=C(C(=O)Nc2cccc(C(F)(F)F)c2)C(c2ccc(O)cc2)C(C(=O)Nc2cccc(C(F)(F)F)c2)=C(C)N1
[1]
  TGI: 44 µM
[2]
  TGI: 31.7 µM
[10]
  TGI: 59.3 µM
[4]
  TGI: 39.9 µM
[5]
  TGI: 35.8 µM
[6]
  TGI: > 100 µM
[7]
  TGI: 36.3 µM
[8]
  TGI: 36 µM

## CC(=O)Nc1ccc2nncnc2c1
[1]
  TGI: > 100 µM
[2]
  TGI: > 100 µM
[3]
  TGI: > 100 µM
[10]
  TGI: > 100 µM
[4]
  TGI: > 100 µM
[5]
  TGI: > 100 µM
[6]
  TGI: > 100 µM
[8]
  TGI: > 100 µM
[9]
  TGI: > 100 µM

## CCOC(=O)C1=C(Nc2ccccc2)OC/C1=N\NC(=O)Cc1ccccc1
[1]
  TGI: > 50 µM
[2]
  TGI: > 50 µM
[3]
  TGI: > 50 µM
[10]
  TGI: > 50 µM
[4]
  TGI: > 50 µM
[5]
  TGI: > 50 µM
[6]
  TGI: > 50 µM
[7]
  TGI: > 50 µM
[8]
  TGI: > 50 µM
